Data published in patent US11480559B2, “Blood collection tube, reagent, and method for analyzing blood characteristics using same” (FUJIMORI KOGYO CO., LTD., priority 2016, dated 2022).

Assays:
Type in all cases: cell-based
blood coagulation [1] = experiment: ROTEM measurement, BD sodium citrate tube, calcium chloride, CTI, aprotinin, heparin sodium and prothrombin reagent (tissue factor); settings: (1) no hemostatic agent; (2) NovoSeven 2 μg/mL; (3) TFPI 10 μg/mL; HemosIL RecombiPlasTin 0.04%
Description: (§1) To a blood sample collected in a sodium citrate blood collection tube manufactured by BD (containing 3.2% sodium citrate in an amount of 1/10 volume with respect to the blood), the following reagents were added to perform ROTEM measurement.
(1) Calcium chloride (final concentration, 12 mM), CTI (final concentration, 50 μg/mL), aprotinin (final concentration, 20 μg/mL), heparin sodium (final concentration, 0.15 U/mL), and a prothrombin reagent (addition of HemosIL RecombiPlasTin (15 μg/mL) to a final concentration of about 0.04%)
(2) Calcium chloride (final concentration, 12 mM), CTI (final concentration, 50 μg/mL), aprotinin (final concentration, 20 μg/mL), heparin sodium (final concentration, 0.15 U/mL), NovoSeven (final concentration, 2 μg/mL), and a prothrombin reagent (addition of HemosIL RecombiPlasTin to a final concentration of 0.04%) […]

blood coagulation [2] = experiment: ROTEM measurement with STARTEM and EXTEM reagents (Comparative Example); settings: (1) alone, (2) NovoSeven 2 μg/mL, (3) TFPI 10 μg/mL
Description: as §1
(1) STARTEM reagent and EXTEM reagent (trademark; a test reagent containing tissue factor as a major component)
(2) STARTEM reagent, EXTEM reagent, and NovoSeven (Novo Nordisk Pharma Ltd.; final concentration, 2 μg/mL)
(3) STARTEM reagent, EXTEM reagent, and TFPI (final concentration, 10 μg/mL)

[3] = tested on: mixed white thrombus formation; experiment: Thrombogenic capacity (white thrombus formation) in microchip coated with collagen and tissue factor, device of FIG. 2; settings: tube A; aprotinin 10 μg/mL added before blood collection; calcium chloride 12 mM and CTI 50 μg/mL; flow rate 10 μL/min
Description: A method for analyzing the mixed white thrombus formation capacity using a microchip B for analysis of a mixed white thrombus is described below with reference to FIG. 2. The example illustrated in FIG. 2 is a mode in which a blood coagulation inhibitor is added to blood that has passed through a channel. However, this is merely an example, and the microchip may be, of course, in a different mode.
A reservoir (blood storage container) 206 is connected in an inverted position to an inlet 204 of the microchip B, and a liquid transfer pump 207 is connected to the reservoir 206. To the liquid transfer pump 207, a pressure sensor 208 is connected.
As the liquid for a liquid transfer pump 207, a liquid having a specific gravity lower than that of blood, such as mineral oil or […] is used. This liquid is introduced using the liquid transfer pump 207 into a reservoir 206 in which blood is preliminarily filled, thereby overlaying the liquid on the blood. […] By measuring the inflow pressure of the liquid, the inflow pressure of the blood into the channel can be indirectly measured.
More specifically, mineral oil is injected from the liquid transfer pump 207 into the reservoir 206. […] By providing the narrow section, high-shear-stress-induced platelet aggregation can be monitored, and thrombus formation in atherothrombosis can be reproduced, which is preferred. […]

blood coagulation [4] = experiment: ROTEM measurement of blood collected in BD sodium citrate tube with added reagents; settings: for blood coagulation (ROTEM): CTI 50 μg/mL, aprotinin 20 μg/mL
Description: as §1
(2) Calcium chloride (final concentration, 12 mM) and CTI (final concentration, 50 μg/mL)
(3) Calcium chloride (final concentration, 12 mM), CTI (final concentration, 50 μg/mL), and aprotinin (final concentration, 20 μg/mL)
(4) Calcium chloride (final concentration, 12 mM), CTI (final concentration, 50 μg/mL), aprotinin (final concentration, 20 μg/mL), and danaparoid sodium (final concentration, 0.25 U/mL)
The results for (1), (2), (3), and (4) are shown from the left in this order (in the order of initiation of coagulation).
(1) STARTEM reagent (calcium chloride reagent)
(4) Calcium chloride (final concentration, 12 mM), CTI (final concentration, 50 μg/mL), aprotinin (final concentration, 20 μg/mL), and heparin sodium (Mochida Pharmaceutical Co., Ltd.; final concentration, 0.15 U/mL)

[5] = tested on: platelet thrombus formation; experiment: Flow measurement of platelet thrombus formation in collagen-coated microchip, device of FIG. 1; settings: blood collected in BD heparin blood collection tube, directly measured; 18 μL/min
Description: First, a method for analyzing the platelet thrombus formation capacity using a microchip A for analysis of a platelet thrombus is described below with reference to FIG. 1. In the example illustrated in FIG. 1, two channels are provided in parallel. However, this is merely an example, and, of course, the microchip may have a single channel, or may be in a different mode.
Reservoirs (blood storage containers) 106 and 116 are connected in an inverted position to a first inlet 104 and a second inlet 114, respectively, of the microchip A, and liquid transfer pumps 107, and 117 are connected to the reservoirs 106 and 116. To the liquid transfer pumps 107 and 117, pressure sensors 108 and 118 are connected. […]
As the liquid for the liquid transfer pumps 107 and 117, a liquid having a specific gravity lower than that of blood, such as mineral oil or […] is used. […] By measuring the inflow pressure of the liquid, the inflow pressure of the blood into each channel can be indirectly measured. […]
Thrombus formation by platelets occurs when the blood passes through the reaction sections, and increases in the inflow pressure due to this thrombus formation can be observed. By detecting the patterns of these pressure increases using the pressure sensors, and comparing the detected patterns, blood properties, that is, the platelet thrombus formation capacity, can be evaluated. […]

Substance: Ac-FQSKpNVHVDGYFERLXAKL-NH2 [TFPI]
- order of coagulation (ROTEM) (blood coagulation [1]): Coagulation occurred in the order of (2), (3), and (1)
- ROTEM waveform versus reagent alone (blood coagulation [2]): showed the same waveform

Substance: aprotinin
- thrombogenic capacity in the presence of blood flow [3]: did not influence the data
- initiation of coagulation (ROTEM) (blood coagulation [4]; aprotinin 20 μg/mL together with calcium chloride 12 mM and CTI 50 μg/mL): suppressed initiation of blood coagulation

Substance: danaparoid sodium
- blood coagulation (ROTEM) (blood coagulation [4]; danaparoid sodium 0.25 U/mL further added to calcium chloride 12 mM): complete suppression of blood coagulation

Substance: heparin
- pressure increase due to platelet thrombus formation [5]: hardly observed

Substance: heparin sodium
- blood coagulation (ROTEM) (blood coagulation [4]; heparin sodium 0.15 U/mL further added to calcium chloride 12 mM): complete suppression of blood coagulation
